ChEMBL document CHEMBL5113432, “Discovery of novel indole and indoline derivatives against Candida albicans as potent antifungal agents” (Bioorg Med Chem Lett, 2022)
The source made the active and inactive calls. No cut-off for these calls is given here.

Tests used:
Candida albicans [1] = assay: Antifungal activity against fluconazole-resistant Candida albicans ATCC10231FR assessed as inhibition of fungal growth by microdilution method; assay type: functional, organism-based
[2] = Cytotoxicity against human 16HBE14o- assessed as inhibition of cell growth incubated for 24 hrs; assay type: toxicity, cell-based; details: 16HBE14o- cells
Candida albicans [3] = assay: Antifungal activity against fluconazole-resistant Candida albicans SC5314FR assessed as inhibition of fungal growth by microdilution method; assay type: functional, organism-based
Candida albicans [4] = assay: Antifungal activity against Candida albicans assessed as downregulation of CYR1 by RT-PCR analysis; assay type: functional, organism-based
Candida albicans [5] = assay: Antifungal activity against Candida albicans assessed as decrease in filamentous hyphae length in Spider medium at 36 to 72 ug/ml by scanning electron microscopy; assay type: functional, organism-based; details: dose 36-72 µg/ml
Candida albicans [6] = assay: Antifungal activity against Candida albicans assessed as inhibition of hyphae formation in Spider medium at 18 to 72 ug/ml and measured for 4 to 8 hrs by scanning electron microscopy; assay type: functional, organism-based; details: dose 18-72 µg/ml, time 4-8 hrs, TDE = time-dependent effect
Candida albicans [7] = assay: Antifungal activity against Candida albicans assessed as downregulation of ALS3 by RT-PCR analysis; assay type: functional, organism-based
Candida albicans [8] = assay: Antifungal activity against Candida albicans assessed as inhibition of fungal growth at 18 to 72 ug/ml and measured 4 to 96 hrs by microdilution method; assay type: functional, organism-based; details: dose 18-72 µg/ml, time 4-96 hrs, TDE = time-dependent effect
Candida albicans [9] = assay: Antifungal activity against Candida albicans assessed as inhibition of fungal growth at 18 to 72 ug/ml and measured upto 96 hrs by microdilution method; assay type: functional, organism-based; details: dose 18-72 µg/ml, DDE = dose-dependent effect
Candida albicans [10] = assay: Antifungal activity against Candida albicans assessed as downregulation of RAS1 by RT-PCR analysis; assay type: functional, organism-based
Candida albicans [11] = assay: Antifungal activity against Candida albicans assessed as downregulation of EFG1 by RT-PCR analysis; assay type: functional, organism-based
Candida albicans [12] = assay: Antifungal activity against clinical strain Candida albicans CA808 assessed as inhibition of fungal growth by microdilution method; assay type: functional, organism-based
Candida albicans [13] = assay: Antifungal activity against fluconazole-sensitive Candida albicans ATCC10231 assessed as inhibition of fungal growth by microdilution method; assay type: functional, organism-based
Candida albicans [14] = assay: Antifungal activity against Candida albicans assessed as inhibition of hyphae formation in Spider medium at 18 to 72 ug/ml and measured upto 8 hrs by scanning electron microscopy; assay type: functional, organism-based; details: dose 18-72 µg/ml, DDE = dose-dependent effect
Candida albicans [15] = assay: Antifungal activity against Candida albicans assessed as downregulation of ECE1 by RT-PCR analysis; assay type: functional, organism-based
Candida albicans [16] = assay: Antifungal activity against clinical strain Candida albicans CA23 assessed as inhibition of fungal growth by microdilution method; assay type: functional, organism-based
Candida albicans [17] = assay: Antifungal activity against fluconazole-sensitive Candida albicans SC5314 assessed as inhibition of fungal growth by microdilution method; assay type: functional, organism-based
Candida albicans [18] = assay: Antifungal activity against clinical strain Candida albicans CA187 assessed as inhibition of fungal growth by microdilution method; assay type: functional, organism-based
Candida albicans [19] = assay: Antifungal activity against clinical strain Candida albicans CA4574 assessed as inhibition of fungal growth by microdilution method; assay type: functional, organism-based
Candida albicans [20] = assay: Antifungal activity against Candida albicans assessed as downregulation of HWP1 by RT-PCR analysis; assay type: functional, organism-based
Candida albicans [21] = assay: Antifungal activity against Candida albicans assessed as inhibition of biofilm formation at 18 to 72 ug/ml incubated for 24 hrs by crystal violet staining based method; assay type: functional, organism-based; details: dose 18-72 µg/ml

With `O=C(CCn1ccc2ccccc21)NCCNS(=O)(=O)c1ccc(OCc2ccccc2)cc1O` the IC50 (Candida albicans [1]) was > 200 µg/mL.

With `O=C(CCn1ccc2ccccc21)NCCNS(=O)(=O)c1cc(Br)ccc1O` the IC50 (Candida albicans [1]) was > 200 µg/mL.

For `O=C(CCn1ccc2ccccc21)NCC/N=C/c1ccc(Cl)c(C(F)(F)F)c1`, the IC50 (Candida albicans [1]) was 24 µg/mL.

With `O=C(CCn1ccc2ccccc21)NCCNS(=O)(=O)c1ccc(Br)cc1` the IC50 (Candida albicans [1]) was > 200 µg/mL.

`O=C(CCn1ccc2ccccc21)NCC/N=C/c1ccc(OC(F)(F)F)cc1` gave an IC50 (Candida albicans [1]) of 29 µg/mL.

In the case of `CCN(CC)c1ccc(/C=N/CCNC(=O)CCn2ccc3ccccc32)c(O)c1`, the CC50 at 24 h [2] is reported as > 200 µg/mL, the IC50 (Candida albicans [3]) is reported as 75 µg/mL and the Activity (Candida albicans [4]) is reported as “Active”. For the same compound, the Activity (Candida albicans [5]) was “Active”, the inhibition (Candida albicans [6]) was “Tde” and the Activity (Candida albicans [7]) was “Active”. The inhibition (Candida albicans [8]) was “Tde”, the inhibition (Candida albicans [9]) was “Dde” and the Activity (Candida albicans [10]) was “Active”. For the same compound, the Activity (Candida albicans [11]) was “Active”, the IC50 (Candida albicans [1]) was 21 µg/mL and the IC50 (Candida albicans [12]) was 78 µg/mL. For the same compound, the IC50 (Candida albicans [13]) was 19 µg/mL, the inhibition (Candida albicans [14]) was “Dde” and the Activity (Candida albicans [15]) was “Active”. It also gave an IC50 (Candida albicans [16]) of 20 µg/mL, an IC50 (Candida albicans [17]) of 22 µg/mL and an IC50 (Candida albicans [18]) of 39 µg/mL. For the same compound, the IC50 (Candida albicans [19]) was 74 µg/mL, the Activity (Candida albicans [20]) was “Active” and the inhibition (Candida albicans [21]) was “Active”.

For `O=C(CCn1ccc2ccccc21)NCCNS(=O)(=O)c1ccc(OC(F)(F)F)cc1`, the IC50 (Candida albicans [1]) was > 200 µg/mL.

For `COc1ccc(O)c(/C=N/CCNC(=O)CCn2ccc3ccccc32)c1`, the IC50 (Candida albicans [1]) was > 200 µg/mL.

For `OC(Cn1cncn1)(Cn1cncn1)c1ccc(F)cc1F` [FLUCONAZOLE], the IC50 (Candida albicans [3]) was > 200 µg/mL, the IC50 (Candida albicans [1]) was > 200 µg/mL and the IC50 (Candida albicans [12]) was > 200 µg/mL. The IC50 (Candida albicans [13]) was 10 µg/mL, the IC50 (Candida albicans [16]) was > 200 µg/mL and the IC50 (Candida albicans [17]) was 1.3 µg/mL. The IC50 (Candida albicans [18]) was > 200 µg/mL and the IC50 (Candida albicans [19]) was 1.2 µg/mL.

`O=C(CCn1ccc2ccccc21)NCC/N=C/c1ccc(OCc2ccccc2)cc1O` gave an IC50 (Candida albicans [1]) of 18 µg/mL.

In the case of `O=C(CCn1ccc2ccccc21)NCCNS(=O)(=O)c1cc(Cl)c(F)cc1F`, the IC50 (Candida albicans [1]) is reported as > 200 µg/mL.

`COc1cc(O)c(/C=N/CCNC(=O)CCn2ccc3ccccc32)c(OC)c1` gave an IC50 (Candida albicans [1]) of 86 µg/mL.

In the case of `O=C(CCn1ccc2ccccc21)NCCNS(=O)(=O)c1cc([N+](=O)[O-])ccc1O`, the IC50 (Candida albicans [1]) is reported as > 200 µg/mL.

In the case of `O=C(CCn1ccc2ccccc21)NCC/N=C/c1cc(Cl)c(F)cc1F`, the IC50 (Candida albicans [1]) is reported as > 200 µg/mL.

For `Cc1ccc(S(=O)(=O)NCCNC(=O)CCn2ccc3ccccc32)cc1`, the IC50 (Candida albicans [1]) was > 200 µg/mL.

With `CCN(CC)c1ccc(S(=O)(=O)NCCNC(=O)CCn2ccc3ccccc32)c(O)c1` the IC50 (Candida albicans [1]) was > 200 µg/mL.

In the case of `O=C(CCn1ccc2ccccc21)NCCNS(=O)(=O)c1ccc(F)c(C(F)(F)F)c1`, the IC50 (Candida albicans [1]) is reported as > 200 µg/mL.

For `O=C(CCn1ccc2ccccc21)NCC/N=C/c1ccc(F)c(C(F)(F)F)c1`, the IC50 (Candida albicans [1]) was > 200 µg/mL.

With `O=C(CCn1ccc2ccccc21)NCC/N=C/c1ccc(Br)cc1` the IC50 (Candida albicans [1]) was > 200 µg/mL.

With `O=C(CCn1ccc2ccccc21)NCCNS(=O)(=O)c1cc(Cl)cc(Br)c1O` the IC50 (Candida albicans [1]) was > 200 µg/mL.
